# Laboratory results: patent publication US7759397B2, “6-amino(aza)indane compounds suitable for treating disorders that respond to modulation of the dopamine D3 receptor” (Abbott GmbH & Co. KG, priority 2004, dated 2010)
# Experiments:
# [1] = biological target: T1, human dopamine D3 receptors (Homo sapiens, UniProt P35462); assay: Dopamine D3 receptor binding, displacement of [125I]-iodosulpride; settings: ratio of receptor binding constants D2 over D3
# T1 construct: expressed in transfected cells
# T1 sequence (P35462 whole entry): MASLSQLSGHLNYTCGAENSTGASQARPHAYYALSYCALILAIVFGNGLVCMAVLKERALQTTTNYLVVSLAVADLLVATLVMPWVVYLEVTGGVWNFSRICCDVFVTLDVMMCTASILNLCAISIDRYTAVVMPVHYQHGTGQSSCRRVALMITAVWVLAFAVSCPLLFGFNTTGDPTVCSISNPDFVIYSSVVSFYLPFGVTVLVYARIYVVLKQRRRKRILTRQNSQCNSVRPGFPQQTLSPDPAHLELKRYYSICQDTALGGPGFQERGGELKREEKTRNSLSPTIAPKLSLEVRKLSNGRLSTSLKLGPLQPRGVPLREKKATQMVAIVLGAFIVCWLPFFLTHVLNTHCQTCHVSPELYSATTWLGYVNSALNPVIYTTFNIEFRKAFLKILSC
# Method: (§1) The substance to be tested was either dissolved in methanol/Chremophor® (BASF-AG) or in dimethyl sulfoxide and then diluted with water to the desired concentration.
# (§2) Each assay mixture was run in triplicate.
# The incubation buffer contained 50 mM tris, 120 mM NaCl, 5 mM KCl, 2 mM CaCl2, 2 mM MgCl2 and 0.1% bovine serum albumin, 10 μM […] and 0.1% ascorbic acid (prepared fresh daily). The buffer was adjusted to pH 7.4 with HCl. Dopamine D2L receptor:
# (§3) After having been incubated at 25° C. for 60 minutes, the assay mixtures were filtered through a Whatman GF/B glass fiber filter under vacuum using a cell collecting device. The filters were transferred to scintillation viols using a filter transfer system. After 4 ml of Ultima Gold® (Packard) have been added, the samples were shaken for one hour and the radioactivity was then counted in a Beta-Counter (Packard, Tricarb 2000 or 2200CA). The cpm values were converted into dpm using a standard quench series and the program belonging to the instrument.
# (§4) The inhibition curves were analyzed by means of iterative nonlinear regression analysis using the Statistical Analysis System (SAS) which is similar to the “LIGAND” program described by Munson and Rodbard.
# [2] = biological target: T1, human dopamine D3 receptors; assay: as above; settings: membranes of HEK-293 cells stably expressing human D3; 0.1 nM [125I]-iodosulpride; 25° C., 60 minutes; read-out: Ki(D3)* receptor binding constant
# [3] = biological target: T2, human dopamine D2L receptors (long isoform) (Homo sapiens, UniProt P14416); assay: Dopamine D2L receptor binding, displacement of [125I] iodospiperone; settings: membranes of HEK-293 cells stably expressing human D2L; 0.01 nM [125I] iodospiperone; 25° C., 60 minutes; read-out: Ki(D2)* receptor binding constant
# T2 construct: expressed in transfected cells
# T2 sequence (P14416 whole entry, canonical isoform): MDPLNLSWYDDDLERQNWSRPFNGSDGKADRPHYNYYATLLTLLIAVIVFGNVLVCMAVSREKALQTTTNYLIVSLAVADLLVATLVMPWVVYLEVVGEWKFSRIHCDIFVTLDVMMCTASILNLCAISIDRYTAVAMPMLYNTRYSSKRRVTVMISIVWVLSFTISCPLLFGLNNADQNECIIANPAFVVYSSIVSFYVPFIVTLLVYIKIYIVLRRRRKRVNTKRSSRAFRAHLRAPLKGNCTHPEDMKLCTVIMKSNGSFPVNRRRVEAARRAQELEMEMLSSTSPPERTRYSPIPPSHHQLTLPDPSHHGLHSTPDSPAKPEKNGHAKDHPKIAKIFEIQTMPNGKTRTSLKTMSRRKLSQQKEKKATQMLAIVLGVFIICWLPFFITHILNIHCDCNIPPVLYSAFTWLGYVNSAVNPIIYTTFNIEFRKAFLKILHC
# Method: as §1, §2
# The incubation buffer contained 50 mM tris, 120 mM NaCl, 5 mM KCl, 2 mM CaCl2, 2 mM MgCl2 and 0.1% bovine serum albumin. The buffer was adjusted to pH 7.4 with HCl.
# as §3, §4
Ki(D2)*/Ki(D3)* selectivity ratio [1],Ki [2],Ki [3],Structure (SMILES)
195,0.26 nM,51 nM,"CCCN(CCC)[C@@H]1Cc2ccc(NS(=O)(=O)c3ccc(C(C)C)cc3)cc2C1.Cl [Example 7, N—((R)-2-Dipropylamino-indan-5-yl)-4-isopropyl-benzenesulfonamide hydrochloride]"
64,4 nM,257 nM,"CCCN[C@@H]1Cc2ccc(NS(=O)(=O)c3ccc(C(C)C)cc3)cc2C1 [Example 1, 4-Isopropyl-N—((R)-2-propylamino-indan-5-yl)-benzenesulfonamide]"
134,9.4 nM,,CCCN1CCC[C@@H]2c3cc(NS(=O)(=O)c4ccc(C(C)C)cc4)ccc3C[C@H]21 [4 (RR)-isomer]
17,1.6 nM,,CCCN1CCC[C@H]2c3cc(NS(=O)(=O)c4ccc(C(C)C)cc4)ccc3C[C@@H]21 [4 (SS)-isomer]
20,6.7 nM,132 nM,"CCCN[C@H]1Cc2ccc(NS(=O)(=O)c3ccc(C(C)C)cc3)cc2C1.Cl [Example 2, 4-Isopropyl-N—((S)-2-propylamino-indan-5-yl)-benzenesulfonamide hydrochloride]"
22,7 nM,157 nM,"CCCN[C@H]1Cc2ccc(N(C)S(=O)(=O)c3ccc(C(C)C)cc3)cc2C1 [Example 3, 4-isopropyl-N-methyl-N—((S)-2-propylamino-indan-5-yl)-benzenesulfonamide]"
